Broadly, the inhibition is the change of the read-out against control, counted positive when it falls.

For one assay, the system named is RANKL-induced BMM. As to the kind of experiment: In vitro osteoclast formation assay (TRAP staining / TRAP activity). In kind it is cell-based, C57/BL6 mice. Also noted: key to Inhibition rate (%): "Inactive" indicates that the % inhibition is less than 30%. As to conditions: 1 µM; osteoclast differentiation in RANKL-induced BMM; mean ± SD from at least three experiments. The method, then:
Bone marrow cells (BMC) were obtained from 8-week-old female C57/BL6 mice by washing femurs and tibias with α-MEM. BMCs were then cultured overnight in full α-MEM containing 10% FBS, 100 U/mL penicillin, and 100 µg/mL streptomycin. Non-attached cells were collected and cultured with M-CSF (30 ng/ mL) for 3 days, and then the attached cells were used as BMM. All animal experiments were approved by Chonnam National University IACUC (approval number: CNU IACUC-YB-2019-49).
To generate osteoclasts, BMMs were harvested and cultured in a complete medium containing 30 ng/mL M-CSF and 50 ng/mL RANKL with or without compounds for approximately 4 days to obtain mature osteoclasts. Differentiated osteoclasts were fixed with 4% formalin for 15 minutes, and then the cells were stained using a TRAP staining kit. The spread of osteoclast areas could be observed under the microscope. The viability of BMM (1 × 10^4 cells/well) was assessed in a 96-well plate using a cell viability assay kit as previously described.
On to `COc1ccccc1OC(=O)c1cccc(NCC(=O)Nc2ccccc2Sc2ccccc2)c1` [Compound 25-KR-20, 2-Methoxyphenyl 3-((2-oxo-2-((2-(phenylthio)phenyl)amino)ethyl)amino) benzoate], for which the “Inhibition rate (%)” value came to 52.27±1.11%.

As for `COc1ccc(OC(=O)c2cccc(NCC(=O)Nc3ccccc3Sc3ccccc3)c2)cc1` [Compound 25-KR-21, 4-Methoxyphenyl 3-((2-oxo-2-((2-(phenylthio)phenyl)amino)ethyl)amino) benzoate], the “Inhibition rate (%)” value is given as 50.91 ± 1.93%.

Turning to `O=C(CNc1cccc(C(=O)Oc2ccc(Cl)cc2)c1)Nc1ccccc1Sc1ccccc1` [Compound 25-KR-25, 4-Chlorophenyl 3-((2-oxo-2-((2-(phenylthio)phenyl)amino)ethyl)amino) benzoate], the “Inhibition rate (%)” value worked out at 43.18 ± 2.32%. As for `COC(=O)c1cccc(N(CC(=O)Nc2ccccc2Sc2ccccc2)S(=O)(=O)c2ccc(C)cc2)c1` [Compound 25-KR-26, Methyl 3-((4-methyl-N-(2-oxo-2-((2-(phenylthio)phenyl)amino)ethyl)phenyl)sulfonamido)benzoate], the “Inhibition rate (%)” value is reported as 49.09 ± 2.32%.

Staying with this assay, now noted: 2 µM; osteoclast differentiation in RANKL-induced BMM; mean ± SD from at least three experiments.
As to `COC(=O)c1cccc(N(CC(=O)Nc2ccccc2Sc2ccccc2)S(C)(=O)=O)c1` [Compound 25-KR-01, Methyl 3-(N-(2-oxo-2-((2-(phenylthio)phenyl)amino)ethyl)methylsulfonamido) benzoate], the “Inhibition rate (%)” value is “Inactive ^c”. As for `CS(=O)(=O)N(CC(=O)Nc1ccccc1Sc1ccccc1)c1cccc(C(=O)O)c1` [Compound 25-KR-02, 3-(N-(2-oxo-2-((2-(phenylthio)phenyl)amino)ethyl)methylsulfonamido)benzoic acid], the “Inhibition rate (%)” value is recorded as “Inactive ^c”.

As for `CC(C)(C)c1ccc(OC(=O)c2cccc(N(CC(=O)Nc3ccccc3Sc3ccccc3)S(C)(=O)=O)c2)cc1` [Compound 25-KR-04, 4-(tert-butyl)phenyl 3-(N-(2-oxo-2-((2-(phenylthio)phenyl)amino)ethyl)methylsulfonamido)benzoate], the “Inhibition rate (%)” value is reported as “Inactive ^c”.

Turning to `Cc1ccccc1OC(=O)c1cccc(N(CC(=O)Nc2ccccc2Sc2ccccc2)S(C)(=O)=O)c1` [Compound 25-KR-05, o -Tolyl 3-(N -(2-oxo-2-((2-(phenylthio)phenyl)amino)ethyl)methylsulfonamido) benzoate], the “Inhibition rate (%)” value is on record as “Inactive ^c”.

Turning to `Cc1cccc(OC(=O)c2cccc(N(CC(=O)Nc3ccccc3Sc3ccccc3)S(C)(=O)=O)c2)c1` [Compound 25-KR-06, m -Tolyl 3-(N-(2-oxo-2-((2-(phenylthio)phenyl)amino)ethyl)methylsulfonamido)benzoate], the “Inhibition rate (%)” value is “Inactive ^c”. The same measure, in the same setting: the value for `Cc1ccc(OC(=O)c2cccc(N(CC(=O)Nc3ccccc3Sc3ccccc3)S(C)(=O)=O)c2)cc1` [Compound 25-KR-07, p -Tolyl 3-(N-(2-oxo-2-((2-(phenylthio)phenyl)amino)ethyl)methylsulfonamido) benzoate] was “Inactive ^c”; that for `CS(=O)(=O)N(CC(=O)Nc1ccccc1Sc1ccccc1)c1cccc(C(=O)Oc2ccccc2C#N)c1` [Compound 25-KR-11, 2-Cyanophenyl 3-(N-(2-oxo-2-((2-(phenylthio)phenyl)amino)ethyl)methylsulfonamido)benzoate] was “Inactive ^c”; that for `CS(=O)(=O)N(CC(=O)Nc1ccccc1Sc1ccccc1)c1cccc(C(=O)Oc2cccc([N+](=O)[O-])c2)c1` [Compound 25-KR-12, 3-Nitrophenyl 3-(N-(2-oxo-2-((2-(phenylthio)phenyl)amino)ethyl)methylsulfonamido)benzoate] was “Inactive ^c”. On the same count and under the same terms, the value for `CS(=O)(=O)N(CC(=O)Nc1ccccc1Sc1ccccc1)c1cccc(C(=O)Oc2ccc([N+](=O)[O-])cc2)c1` [Compound 25-KR-13, 4-Nitrophenyl 3-(N-(2-oxo-2-((2-(phenylthio)phenyl)amino)ethyl)methylsulfonamido)benzoate] was “Inactive ^c”; that for `CS(=O)(=O)N(CC(=O)Nc1ccccc1Sc1ccccc1)c1cccc(C(=O)Oc2cccc3ccccc23)c1` [Compound 25-KR-14, Naphthalen-1-yl 3-(N-(2-oxo-2-((2-(phenylthio)phenyl)amino)ethyl)methylsulfonamido)benzoate] was “Inactive ^c”. For the compound `CS(=O)(=O)N(CC(=O)Nc1ccccc1Sc1ccccc1)c1cccc(C(=O)Oc2ccc3ccccc3c2)c1` [Compound 25-KR-15, Naphthalen-2-yl 3-(N-(2-oxo-2-((2-(phenylthio)phenyl)amino)ethyl)methylsulfonamido)benzoate], the “Inhibition rate (%)” value is given as “Inactive ^c”.

As for `CC(C)(C)[Si](C)(C)Oc1cccc(N(CC(=O)Nc2ccccc2Sc2ccccc2)S(C)(=O)=O)c1` [Compound 25-KR-16, 2-(N-(3-((tert-butyldimethylsilyl)oxy)phenyl)methylsulfonamido)-N-(2-(phenylthio)phenyl)acetamide], the “Inhibition rate (%)” value is reported as “Inactive ^c”. Regarding `CS(=O)(=O)N(CC(=O)Nc1ccccc1Sc1ccccc1)c1cccc(O)c1` [Compound 25-KR-17, 2-(N-(3-hydroxyphenyl)methylsulfonamido)-N-(2-(phenylthio)phenyl)acetamide], the “Inhibition rate (%)” value is listed as “Inactive ^c”. Still for that read-out and setting: under `CC(C)(C)[Si](C)(C)Oc1cccc(NCC(=O)Nc2ccccc2Sc2ccccc2)c1` [Compound 25-KR-18, 2-((3-((tert-butyldimethylsilyl)oxy)phenyl)amino)-N-(2-(phenylthio)phenyl)acetamide] stands “Inactive ^c”. On the same count and under the same terms, the value for `O=C(CNc1cccc(O)c1)Nc1ccccc1Sc1ccccc1` [Compound 25-KR-19, 2-((3-Hydroxyphenyl)amino)-N-(2-(phenylthio)phenyl)acetamide] was “Inactive ^c”.

Still in this assay, the particulars now being: Mus musculus; 1 µM; osteoclast differentiation in RANKL-induced BMM; mean ± SD from at least three experiments; read-out: Inhibition rate (%).
Regarding `Cc1ccccc1OC(=O)c1cccc(NCC(=O)Nc2ccccc2Sc2ccccc2)c1` [Compound 25-KR-22, o-Tolyl 3-((2-oxo-2-((2-(phenylthio)phenyl)amino)ethyl)amino)benzoate], the inhibition at 1 µM was determined as 47.7 ± 11.4%. Same read-out and setting: the value for `Cc1cccc(OC(=O)c2cccc(NCC(=O)Nc3ccccc3Sc3ccccc3)c2)c1` [Compound 25-KR-23, m-Tolyl 3-((2-oxo-2-((2-(phenylthio)phenyl)amino)ethyl)amino)benzoate] was 46.8 ± 13.4%.

Regarding `Cc1ccc(OC(=O)c2cccc(NCC(=O)Nc3ccccc3Sc3ccccc3)c2)cc1` [Compound 25-KR-24, p-Tolyl 3-((2-oxo-2-((2-(phenylthio)phenyl)amino)ethyl)amino)benzoate], the inhibition at 1 µM is 36.8 ± 7.82%.

For `O=C(CNc1cccc(C(=O)O)c1)Nc1ccccc1Sc1ccccc1` [Compound 25-KR-27, 3-((2-oxo-2-((2-(phenylthio)phenyl)amino)ethyl)amino)benzoic acid], the inhibition at 1 µM was 31.8 ± 1.93%.

Still in this assay, the particulars now being: Mus musculus; 2 µM; osteoclast differentiation in RANKL-induced BMM; mean ± SD from at least three experiments; read-out: Inhibition rate (%).
Turning to `NCCCC(O)(P(=O)(O)O)P(=O)(O)O` [Alendronate, reference compound], the inhibition at 2 µM was determined as 41.2 ± 8.68%. For the compound `COc1ccccc1OC(=O)c1cccc(N(CC(=O)Nc2ccccc2Sc2ccccc2)S(C)(=O)=O)c1` [Compound 25-KR-08, 2-Methoxyphenyl 3-(N-(2-oxo-2-((2-(phenylthio)phenyl)amino)ethyl)methylsulfonamido)benzoate], the inhibition at 2 µM worked out at 37.6 ± 8.21%. For the compound `COc1ccc(OC(=O)c2cccc(N(CC(=O)Nc3ccccc3Sc3ccccc3)S(C)(=O)=O)c2)cc1` [Compound 25-KR-09, 4-Methoxyphenyl 3-(N-(2-oxo-2-((2-(phenylthio)phenyl)amino)ethyl)methylsulfonamido)benzoate], the inhibition at 2 µM is 45.8 ± 3.65%. Same read-out and setting: under `CS(=O)(=O)N(CC(=O)Nc1ccccc1Sc1ccccc1)c1cccc(C(=O)Oc2ccc(Cl)cc2)c1` [Compound 25-KR-10, 4-Chlorophenyl 3-(N-(2-oxo-2-((2-(phenylthio)phenyl)amino)ethyl)methylsulfonamido)benzoate] stands 47.4 ± 9.79%.

The assay is the same for the next values; noted with them: SAR summary in words of Table 2 (2 µM).
As to `COc1ccccc1OC(=O)c1cccc(N(CC(=O)Nc2ccccc2Sc2ccccc2)S(C)(=O)=O)c1` [Compound 25-KR-08, 2-Methoxyphenyl 3-(N-(2-oxo-2-((2-(phenylthio)phenyl)amino)ethyl)methylsulfonamido)benzoate], the “inhibitory effects on osteoclast formation” value was “moderate inhibitory effects”. On the same count and under the same terms, the value for `COc1ccc(OC(=O)c2cccc(N(CC(=O)Nc3ccccc3Sc3ccccc3)S(C)(=O)=O)c2)cc1` [Compound 25-KR-09, 4-Methoxyphenyl 3-(N-(2-oxo-2-((2-(phenylthio)phenyl)amino)ethyl)methylsulfonamido)benzoate] was “moderate inhibitory effects”; that for `CS(=O)(=O)N(CC(=O)Nc1ccccc1Sc1ccccc1)c1cccc(C(=O)Oc2ccc(Cl)cc2)c1` [Compound 25-KR-10, 4-Chlorophenyl 3-(N-(2-oxo-2-((2-(phenylthio)phenyl)amino)ethyl)methylsulfonamido)benzoate] was “moderate inhibitory effects”.

In the next assay the test system is OVX-induced osteoporosis mouse model. Description: OVX-induced osteoporosis mouse model (micro-CT, body weight). In kind it is in vivo, C57BL/6 female mice. As to conditions: 20 mg/kg intraperitoneally once daily for 4 weeks after surgery; compared with the OVX group. As for the experimental part: Specific pathogen-free facilities were used to grow mice. To investigate the effects of 25-KR-03 in vivo, the inventors established an OVX-induced osteoporosis mouse model as previously described. Seven-week-old C57BL/6 female mice were divided into four groups (Sham, OVX, 25-KR-03, and PMSA-3-Ac). Among them, the OVX, 25-KR-03, and PMSA-3-Ac groups underwent OVX surgery.
After a 1-week recovery period, mice were intraperitoneally injected with 25-KR-03 or PMSA-3-Ac (20 mg/kg, dissolved in a mixture of 10 % Tween 80 and 10% DMSO) once daily for 4 weeks. The sham and control (OVX) groups received equal volumes of the mixture of 10 % Tween 80 and 10% DMSO once daily for 4 weeks. Body weights of the mice were measured weekly. When the mice were euthanized, the femurs were isolated and fixed in 4.0% paraformaldehyde for micro-computed tomography (micro-CT) analysis as previously performed.
Micro-CT scanning was performed as in previous studies. The Quantum GX Micro-CT imaging system (PerkinElmer, Hopkinton, MA, USA) was used at the Korea Basic Science Institute (Gwangju, Korea).
Take `CC(=O)c1cccc(N(CC(=O)Nc2ccccc2Sc2ccccc2)S(C)(=O)=O)c1` [PMSA-3-Ac, reference compound]: the “prevention of bone loss (Tb.Th and BMD values, micro-CT of femur)” value is reported as “no significant effect”.
